# Tested on: zebrafish (Danio rerio) AB strain embryos
# Assay: Acute toxicity testing of extracts using zebrafish embryos (mortality rate after 48 hr exposure)
# Type: in vivo
# Details: 3.7 mg/L
# Procedure: Extracts prepared as described in Example 1 were tested for acute toxicity using zebrafish (Danio rerio) AB strain embryos. Chicken breast extracts were diluted into zebrafish embryo culture medium at 0.25, 0.50, 1.00, 2.00 and 4.00 μl/ml. Zebrafish AB strain embryos of 4-128 cell stages were exposed to extract dilutions in a 96-well plate at 1 embryo per well. Each concentration was tested with 20 embryos. Zebrafish embryo culture medium and 3.7 mg/L dichloroaniline were included as negative and positive controls, respectively. After 48 hr exposure at 26° C., zebrafish embryos were observed under a stereomicroscope and fish embryos that were coagulated, tail not detached, and having no heart beat were marked as dead. Mortality rate for each concentration was calculated as the acute toxicity endpoint. The mortality rate for the negative control was 0% and for the positive control was 65%.
# The acute toxicity of milk powder extracts prepared as described in Example 4 were tested for acute toxicity using zebrafish (Danio rerio) AB strain embryos. Milk powder extracts were diluted into zebrafish embryo culture medium at 0.33, 0.50, 0.76, 1.74 and 4.00 μl/ml. Zebrafish AB strain embryos of 4-128 cell stages were exposed to extract dilutions in a 96-well plate with 1 embryo per well. […] Mortality rate of each concentration was calculated as the acute toxicity endpoint. […]
compound,measurement,setting,value
"Nc1ccc(Cl)c(Cl)c1 [3,4-dichloroaniline]",Mortality rate for positive control,"48-hr exposure at 26° C., Example 5 (milk powder test)",60%
same,Mortality rate for the positive control,"48 hr exposure at 26° C., Example 2 (chicken breast test)",65%

# Reference: patent US20170356895A1, “TOXICANT ASSAYS FOR CONSUMABLE PRODUCTS” (priority 2016, published 2017)
